Source: article PMC3916391 (PLoS Pathogens, 2014)
Read-outs that look alike come from different tables or passages of the source.

Target: T1, pyocin L1 (Pseudomonas aeruginosa, UniProt T2LG16)
T1 construct: full length, 256 residues, 28413 Da; expressed in E. coli BL21(DE3)pLysS (pETPyoL1); monomer
T1 sequence (T2LG16 1-256): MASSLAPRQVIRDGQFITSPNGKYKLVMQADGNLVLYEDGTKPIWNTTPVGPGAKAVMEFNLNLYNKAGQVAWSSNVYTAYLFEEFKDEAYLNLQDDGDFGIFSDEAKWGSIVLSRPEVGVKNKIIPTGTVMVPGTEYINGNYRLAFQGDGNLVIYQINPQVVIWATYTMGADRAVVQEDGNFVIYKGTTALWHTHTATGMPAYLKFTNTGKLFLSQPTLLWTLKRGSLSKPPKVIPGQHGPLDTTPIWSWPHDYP
Format: binding

| SMILES | Kd (read-out: Kd) [mM] | Kd (read-out: apparent Kd) [mM] |
| --- | --- | --- |
| OC[C@H]1OC(O)[C@@H](O)[C@@H](O)[C@@H]1O (stereo partly drawn) [D-mannose] | > 50 | – |
| C[C@H]1OC(O)[C@@H](O)[C@@H](O)[C@@H]1O (stereo partly drawn) [D-rhamnose] | – | 5 to 10 |
